# US11434258B2, “Compounds (immunorhelins)” (ISR IMMUNE SYSTEM REGULATION HOLDING AB (PUBL), priority 2017, dated 2022)
# Non-standard residues stand in square brackets, D forms with d. Residues, ends and D or L forms follow the SMILES beside them. *: point of attachment. dHis(τ-Bn) = N[C@H](Cc1cn(Cc2ccccc2)cn1)C(=O)O; d2Nal = N[C@H](Cc1ccc2ccccc2c1)C(=O)O; pGlu = O=C1CC[C@@H](C(=O)O)N1; tBu = CC(C)(C)*
# Experiments:
# [1] = Solubility in PBS (LC/UV AUC trend); settings: PBS pH 7.4, 0.2 mg/ml; rating 1 (good) to 5 (poor)
# [2] = Stability in aqueous media (PBS pH 7.4); format: physicochemical; parameters: unit not given here; settings: phosphate buffer solution (PBS); PBS pH 7.4, 37° C., samples at T=0, 4, 24, 96 h; read-out: Stability grading (t1/2)
# Source text: LC/MS data was collected for compound identity.
# [3] = biological target: T1, GnRHR (Homo sapiens, UniProt P30968); assay: Calcium assay in CHO-K1 cells (Genscript), FLIPR; format: cell-based; settings: CHO-K1/GnRHR/Ga15 cells, relative to agonist control, read-out: GNRHR Stimulation at 1 μM
# T1 construct: host or cells: CHO-K1 (CHO-K1/GnRHR/Ga15)
# T1 sequence (P30968 1-328): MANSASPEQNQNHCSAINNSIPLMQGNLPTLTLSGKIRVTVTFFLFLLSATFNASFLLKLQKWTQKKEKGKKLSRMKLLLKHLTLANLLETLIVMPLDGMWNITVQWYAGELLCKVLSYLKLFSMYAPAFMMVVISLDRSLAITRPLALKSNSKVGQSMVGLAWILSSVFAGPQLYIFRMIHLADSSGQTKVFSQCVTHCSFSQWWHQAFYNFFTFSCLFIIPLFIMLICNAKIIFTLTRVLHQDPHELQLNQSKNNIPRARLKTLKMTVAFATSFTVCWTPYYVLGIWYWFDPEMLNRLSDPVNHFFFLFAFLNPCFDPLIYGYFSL
# Protocol: Test article sample solutions were dissolved in HBSS buffer (with 20 mM HEPES buffer, pH 7.4) to form the 5× working solution. FLIPR® Calcium 4 assay kit from Molecular devices (R8141) was used as required. In brief, CHO-K1 cells expressing GnRHR (CHO-K1/GnRHR/Ga15, Genscript accession NM_000406) were respectively cultured in the 10-cm dishes and maintained at 37° C./5% CO2. CHO-K1 cells expressing GNRHR were respectively seeded in a 384-well black-wall, clear-bottom plate at a density of 15,000 cells per well in 20 μl of growth medium about 18 hours prior to the day of experiment and maintained at 37° C./5% CO2. Then, 20 μl of dye loading solution was added into the wells and the plates were subsequently placed into a 37° C. incubator for 60 minutes, followed by a 15 minutes' incubation at room temperature. At last, 10 μl of compounds or control agonist were added into respective wells of the assay plate during reading in FLIPR. The plate containing 5× compound and control agonist solution was placed in FLIPR. Solutions were added into the cell plate automatically at the 20 seconds and the fluorescence signal was monitored for an additional 100 seconds (21 sec to 120 sec.). Data were recorded by ScreenWorks (version 3.1) as FMD files with FLIPR and stored on the GenScript computer network for off-line analysis. Data acquisition and analyses was performed using ScreenWorks (version 3.1) program and exported to Excel. The average value of the first 20 seconds' reading was calculated as the baseline and the relative fluorescent units (ΔRFU) intensity values were calculated by subtracting the average value of baseline from the maximum fluorescent units (21 s to 120 s).
# The % Stimulation was calculated with the following equation: % Stimulation=(ΔRFUCompound−ΔRFUBackground)/(ΔRFUAgonist control−ΔRFUBackground)×100
# Dose response curves were fitted with four-parameter-logistic-equation by the software GraphPad Prism 6.
# Equation: four parameter logistic equation. Y=Bottom+(Top-Bottom)/(1+10^((Log EC50−X)×Hillslope))
# X is the logarithm of concentration. Y is the response.
structure (smiles),measurement,setting,value
"CCNC(=O)[C@@H]1CCCN1C(=O)[C@H](CCCNC(=N)N)NC(=O)[C@H](CC(C)C)NC(=O)[C@@H](COC(C)(C)C)NC(=O)[C@H](Cc1ccc(O)cc1)NC(=O)[C@H](CO)NC(=O)[C@H](Cc1c[nH]c2ccccc12)NC(=O)[C@H](Cc1cnc[nH]1)NC(=O)[C@@H]1CCC(=O)N1 [Buserelin acetate, reference compound]",Solubility grading,[1],1
"CCNC(=O)[C@@H]1CCCN1C(=O)[C@H](CCCNC(=N)N)NC(=O)[C@H](CC(C)C)NC(=O)[C@@H](COC(C)(C)C)NC(=O)[C@H](Cc1c[nH]cn1)NC(=O)[C@H](CO)NC(=O)[C@H](Cc1c[nH]c2ccccc12)NC(=O)[C@H](Cc1c[nH]cn1)NC(=O)[C@@H]1CCC(=O)N1 [Compound 6, pGlu-His-Trp-Ser-His-D-Ser(tBu)-Leu-Arg-Pro-NHEt] ([pGlu]HWSH[dS](tBu)LRP-NHEt)",half-life at 0.2 mg/ml,[2],> 96
same,activation at 1 µM,[3],88%
same,Solubility grading,[1],1
"CCNC(=O)[C@@H]1CCCN1C(=O)[C@H](Cc1ccc(O)cc1)NC(=O)[C@H](CC(C)C)NC(=O)[C@@H](COC(C)(C)C)NC(=O)[C@H](Cc1ccc(O)cc1)NC(=O)[C@H](CO)NC(=O)[C@H](Cc1c[nH]c2ccccc12)NC(=O)[C@H](Cc1c[nH]cn1)NC(=O)[C@@H]1CCC(=O)N1 [Compound 9, pGlu-His-Trp-Ser-Tyr-D-Ser(tBu)-Leu-Tyr-Pro-NHEt] ([pGlu]HWSY[dS](tBu)LYP-NHEt)",half-life at 0.2 mg/ml,[2],> 96
same,activation at 1 µM,[3],78%
same,Solubility grading,[1],1
"CCNC(=O)[C@@H]1CCCN1C(=O)[C@H](CCCNC(=N)N)NC(=O)[C@H](Cc1c[nH]c2ccccc12)NC(=O)[C@@H](COC(C)(C)C)NC(=O)[C@H](Cc1c[nH]cn1)NC(=O)[C@H](CO)NC(=O)[C@H](Cc1c[nH]c2ccccc12)NC(=O)[C@H](Cc1c[nH]cn1)NC(=O)[C@@H]1CCC(=O)N1 [Compound 10, pGlu-His-Trp-Ser-His-D-Ser(tBu)-Trp-Arg-Pro-NHEt] ([pGlu]HWSH[dS](tBu)WRP-NHEt)",half-life at 0.2 mg/ml,[2],> 96
same,activation at 1 µM,[3],81%
same,Solubility grading,[1],1
"CCNC(=O)[C@@H]1CCCN1C(=O)[C@H](Cc1ccc(O)cc1)NC(=O)[C@H](CC(C)C)NC(=O)[C@@H](COC(C)(C)C)NC(=O)[C@H](Cc1c[nH]cn1)NC(=O)[C@H](CO)NC(=O)[C@H](Cc1c[nH]c2ccccc12)NC(=O)[C@H](Cc1c[nH]cn1)NC(=O)[C@@H]1CCC(=O)N1 [Compound 11, pGlu-His-Trp-Ser-His-D-Ser(tBu)-Leu-Tyr-Pro-NHEt] ([pGlu]HWSH[dS](tBu)LYP-NHEt)",half-life at 0.2 mg/ml,[2],> 96
same,activation at 1 µM,[3],76%
same,Solubility grading,[1],1
"CC(C)C[C@H](NC(=O)[C@@H](Cc1ccc2ccccc2c1)NC(=O)[C@H](Cc1c[nH]cn1)NC(=O)[C@H](CO)NC(=O)[C@H](Cc1c[nH]c2ccccc12)NC(=O)[C@H](Cc1c[nH]cn1)NC(=O)[C@@H]1CCC(=O)N1)C(=O)N[C@@H](CCCNC(=N)N)C(=O)N1CCC[C@H]1C(=O)NCC(N)=O [Compound 23, pGlu-His-Trp-Ser-His-D-Nal-Leu-Arg-Pro-Gly-amide] ([pGlu]HWSH[d2Nal]LRPG-NH2)",half-life at 0.2 mg/ml,[2],> 96
same,activation at 1 µM,[3],106%
same,Solubility grading,[1],1
"N=C(N)NCCC[C@H](NC(=O)[C@H](Cc1c[nH]c2ccccc12)NC(=O)[C@@H](Cc1ccc2ccccc2c1)NC(=O)[C@H](Cc1ccc(O)cc1)NC(=O)[C@H](CO)NC(=O)[C@H](Cc1c[nH]c2ccccc12)NC(=O)[C@H](Cc1c[nH]cn1)NC(=O)[C@@H]1CCC(=O)N1)C(=O)N1CCC[C@H]1C(=O)NCC(N)=O [Compound 24, pGlu-His-Trp-Ser-Tyr-D-Nal-Trp-Arg-Pro-Gly-amide] ([pGlu]HWSY[d2Nal]WRPG-NH2)",half-life at 0.2 mg/ml,[2],< 96
same,activation at 1 µM,[3],87%
same,Solubility grading,[1],5
"N=C(N)NCCC[C@H](NC(=O)[C@H](Cc1c[nH]c2ccccc12)NC(=O)[C@@H](Cc1ccc2ccccc2c1)NC(=O)[C@H](Cc1c[nH]cn1)NC(=O)[C@H](CO)NC(=O)[C@H](Cc1c[nH]c2ccccc12)NC(=O)[C@H](Cc1c[nH]cn1)NC(=O)[C@@H]1CCC(=O)N1)C(=O)N1CCC[C@H]1C(=O)NCC(N)=O [Compound 27, pGlu-His-Trp-Ser-His-D-Nal-Trp-Arg-Pro-Gly-amide] ([pGlu]HWSH[d2Nal]WRPG-NH2)",half-life at 0.2 mg/ml,[2],> 96
same,activation at 1 µM,[3],108%
same,Solubility grading,[1],1
"NC(=O)CNC(=O)[C@@H]1CCCN1C(=O)[C@H](Cc1ccc(O)cc1)NC(=O)[C@H](Cc1c[nH]c2ccccc12)NC(=O)[C@@H](Cc1ccc2ccccc2c1)NC(=O)[C@H](Cc1ccc(O)cc1)NC(=O)[C@H](CO)NC(=O)[C@H](Cc1c[nH]c2ccccc12)NC(=O)[C@H](Cc1c[nH]cn1)NC(=O)[C@@H]1CCC(=O)N1 [Compound 30, pGlu-His-Trp-Ser-Tyr-D-Nal-Trp-Tyr-Pro-Gly-amide] ([pGlu]HWSY[d2Nal]WYPG-NH2)",half-life at 0.2 mg/ml,[2],< 96
same,activation at 1 µM,[3],12%
same,Solubility grading,[1],1
"CCNC(=O)[C@@H]1CCCN1C(=O)[C@H](Cc1ccc(O)cc1)NC(=O)[C@H](Cc1c[nH]c2ccccc12)NC(=O)[C@@H](CC(C)C)NC(=O)[C@H](Cc1ccc(O)cc1)NC(=O)[C@H](CO)NC(=O)[C@H](Cc1c[nH]c2ccccc12)NC(=O)[C@H](Cc1c[nH]cn1)NC(=O)[C@@H]1CCC(=O)N1 [Compound 49, pGlu-His-Trp-Ser-Tyr-D-Leu-Trp-Tyr-Pro-NHEt] ([pGlu]HWSY[dL]WYP-NHEt)",half-life at 0.2 mg/ml,[2],> 96
same,activation at 1 µM,[3],77%
"CCNC(=O)[C@@H]1CCCN1C(=O)[C@H](Cc1ccc(O)cc1)NC(=O)[C@H](CC(C)C)NC(=O)[C@@H](Cc1cn(Cc2ccccc2)cn1)NC(=O)[C@H](Cc1ccc(O)cc1)NC(=O)[C@H](CO)NC(=O)[C@H](Cc1c[nH]c2ccccc12)NC(=O)[C@H](Cc1c[nH]cn1)NC(=O)[C@@H]1CCC(=O)N1 [Compound 59, pGlu-His-Trp-Ser-Tyr-D-Bhi-Leu-Tyr-Pro-NHEt] ([pGlu]HWSY[dHis(τ-Bn)]LYP-NHEt)",half-life at 0.2 mg/ml,[2],< 96
same,activation at 1 µM,[3],85%
"CCNC(=O)[C@@H]1CCCN1C(=O)[C@H](CCCNC(=N)N)NC(=O)[C@H](Cc1c[nH]c2ccccc12)NC(=O)[C@@H](Cc1cn(Cc2ccccc2)cn1)NC(=O)[C@H](Cc1c[nH]cn1)NC(=O)[C@H](CO)NC(=O)[C@H](Cc1c[nH]c2ccccc12)NC(=O)[C@H](Cc1c[nH]cn1)NC(=O)[C@@H]1CCC(=O)N1 [Compound 60, pGlu-His-Trp-Ser-His-D-Bhi-Trp-Arg-Pro-NHEt] ([pGlu]HWSH[dHis(τ-Bn)]WRP-NHEt)",half-life at 0.2 mg/ml,[2],> 96
same,activation at 1 µM,[3],102%
"CCNC(=O)[C@@H]1CCCN1C(=O)[C@H](Cc1ccc(O)cc1)NC(=O)[C@H](CC(C)C)NC(=O)[C@@H](Cc1cn(Cc2ccccc2)cn1)NC(=O)[C@H](Cc1c[nH]cn1)NC(=O)[C@H](CO)NC(=O)[C@H](Cc1c[nH]c2ccccc12)NC(=O)[C@H](Cc1c[nH]cn1)NC(=O)[C@@H]1CCC(=O)N1 [Compound 61, pGlu-His-Trp-Ser-His-D-Bhi-Leu-Tyr-Pro-NHEt] ([pGlu]HWSH[dHis(τ-Bn)]LYP-NHEt)",half-life at 0.2 mg/ml,[2],> 96
same,activation at 1 µM,[3],112%
"NC(=O)CNC(=O)[C@@H]1CCCN1C(=O)[C@H](Cc1ccc(O)cc1)NC(=O)[C@H](Cc1c[nH]c2ccccc12)NC(=O)[C@@H](Cc1c[nH]c2ccccc12)NC(=O)[C@H](Cc1c[nH]cn1)NC(=O)[C@H](CO)NC(=O)[C@H](Cc1c[nH]c2ccccc12)NC(=O)[C@H](Cc1c[nH]cn1)NC(=O)[C@@H]1CCC(=O)N1 [Compound 65, pGlu-His-Trp-Ser-His-D-Trp-Trp-Tyr-Pro-Gly-amide] ([pGlu]HWSH[dW]WYPG-NH2)",half-life at 0.2 mg/ml,[2],> 96
same,activation at 1 µM,[3],72%
